Results as given in patent publication US20080004282A1, “Compositions and methods for modulating gated ion channels” (PainCeptor Pharma Corporation, priority 2006, published 2008).

Biological target: T1, ASIC1a (Homo sapiens, UniProt P78348)
T1 sequence (P78348 1-528): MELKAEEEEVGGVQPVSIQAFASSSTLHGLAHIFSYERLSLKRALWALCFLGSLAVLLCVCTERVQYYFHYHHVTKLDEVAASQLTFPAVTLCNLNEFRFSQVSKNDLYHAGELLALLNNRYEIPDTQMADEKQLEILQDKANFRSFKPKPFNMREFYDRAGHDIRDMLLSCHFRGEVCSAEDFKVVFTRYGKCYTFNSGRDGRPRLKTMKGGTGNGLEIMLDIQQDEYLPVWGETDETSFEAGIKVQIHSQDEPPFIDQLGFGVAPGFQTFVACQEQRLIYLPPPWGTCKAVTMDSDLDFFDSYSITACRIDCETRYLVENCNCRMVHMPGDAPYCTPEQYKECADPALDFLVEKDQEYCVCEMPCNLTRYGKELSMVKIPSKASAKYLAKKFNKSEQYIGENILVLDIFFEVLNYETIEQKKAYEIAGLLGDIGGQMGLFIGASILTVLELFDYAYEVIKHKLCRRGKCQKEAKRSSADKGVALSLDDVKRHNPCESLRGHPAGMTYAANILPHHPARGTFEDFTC
Test: Calcium-imaging (FLIPR) of MES-induced calcium response in ASIC1a expressing HEK293 cells
Assay type: cell-based
Set-up: host or cells: HEK293
Protocol: Identification of ASIC Antagonists Using Calcium-Imaging
ASIC1a expressing HEK293 cells are grown in culture medium (DMEM with 10% FBS), in polystyrene culture flasks (175 mm 2) at 37° C. in a humidified atmosphere of 5% CO2. Confluency of cells should be 80-90% on day of plating. Cells are rinsed with 10 ml of PBS and cells are re-suspended by addition of culture medium and trituration with a 25 ml pipette.
The cells are seeded at a density of approximately 1×10^6 cells/ml (100 μl/well) in black-walled, clear bottom, 96-well plates pre-treated with 10 mg/l poly-D-lysin (75 μl/well for ≧30 min). Plated cells are allowed to proliferate for 24 h before loading with dye.
Loading with Fluorescent Calcium Dye Fluo-4/AM
Fluo-4/AM (1 mg, Molecular Probes) is dissolved in 912 μl DMSO. The Fluo-4/AM stock solution (1 mM) is diluted with culture medium to a final concentration of 2 μM (loading solution).
The culture medium is aspirated from the wells, and 50 μl of the Fluo-4/AM loading solution is added to each well. The cells are incubated at 37° C. for 30 min.
After the loading period, the loading solution is aspirated and the cells are washed twice with 100 μl modified Assay Buffer (145 mM NaCl, 5 mM KCl, 5 mM CaCl2, 1 mM MgCl2, 10 mM HEPES, pH 7.4) to remove extracellular dye. Following the second wash, 100 μl modified Assay Buffer is added to each well and the fluorescence is measured in FLIPR™ or FlexStation™ (Molecular Devices, USA), or any other suitable equipment known to the skilled in the art.
Temperature: Room temperature (20-22° C.)
First addition: 50 μl test solution at a rate of 30 μl/sec and a starting height of […]
Second addition: 50 μl MES solution (20 mM, 5 mM final concentration) at a rate of 35 μl/sec and a starting height of 150 μl.
Reading intervals: pre-incubation—10 sec×7 and 3 sec×3 antagonist phase—3 sec×17 and 10 sec×12
Addition plates (compound test plate and MES plate) are placed on the right and left positions in the FLIPR tray, respectively. Cell plates are placed in the middle position and the ASIC1a program is effectuated. FLIPR will then take the appropriate measurements in accordance with the interval settings above. Fluorescence obtained after stimulation is corrected for the mean basal fluorescence (in modified Assay Buffer).
Hit Confirmation and Characterization of Active Substances
The MES-induced peak calcium response, in the presence of test substance, is expressed relatively to the MES response alone. Test substances that block the MES-induced calcium response are re-tested in triplicates. […]

CCN1CCc2c(-c3cc(Cl)ccc3OC)cc(C#N)c(N)c2C1 [Compound 44]
IC50: < 10 µM
